Paper PMC7346113, “Screening of Natural Stilbene Oligomers from Vitis vinifera for Anticancer Activity on Human Hepatocellular Carcinoma Cells” (Antioxidants, 2020)

Tests used:
Type in all cases: cell-based, human
[1] = test system: intracellular ROS in HepG2; assay: Intracellular ROS, H2DCF-DA assay, flow cytometry
Experimental: Intracellular levels of reactive oxygen species (ROS) were measured using the cell-permeant 2’,7’ dichlorodihydrofluorescein diacetate (H2DCF-DA) probe (Molecular Probes, Eugene, OR, USA), which permeates living cells and is deacetylated and oxidized upon ROS exposure inside the cell, forming the fluorescent 2’,7’-dichlorofluorescein (DCF).
(§1) HepG2 cells were cultured in a 6-well cell culture plate at a density of 2 × 10^5 cells per well 24 h before starting the treatment with R2-viniferin. The medium was renewed and cells were incubated with R2-viniferin as described above. After treatment, cells were washed and incubated with 20 μM H2DCF-DA or 4 μM MitoSOX™ for 30 min at 37 °C in the dark. The probe solution was then withdrawn and, after washing with PBS, the cells were trypsinized. The fluorescence intensity from living cells was measured by flow cytometry (DCF λex = 485/20 and λem = 528/20, MitoSOX λex = 485/20 and λem = 620/20) in a Beckman Coulter Gallios Flow cytometer in the General Research Services SGIker of the UPV/EHU. At least 10,000 events were detected. Data obtained from flow cytometry were analyzed using Summit 4.3 software (Dako, Hovedstaden, Denmark). Intracellular ROS and mitochondrial O2^− were expressed as the percentage of the fluorescence intensity in control cells at the same time of incubation.

Hep3B = assay: Cell viability, crystal violet assay, Hep3B; conditions: mean ± standard error
From the text: (§2) The human hepatoma cell line HepG2 was obtained from the American Tissue Culture Collection (ATCC, Manassas, VA, USA). The human hepatoma cell line Hep3B was obtained from the European Collection of Authenticated Cell Cultures (ECACC, Porton Down, Salisbury, Wiltshire, UK). HH4 non-transformed human hepatocyte cell line (kindly provided by Dr. I. Fabregat, Molecular Oncology, Bellvitge Biomedical Research Institute, Spain) was established as described.
(§3) HepG2 and Hep3B cell lines were maintained in Eagle’s Minimum Essential Medium and HH4 cell line was grown in Ham´s F12 Nutrient Mixture (Sigma-Aldrich, St Louis, MO, USA). Both culture media were supplemented with 10% heat inactivated fetal bovine serum, 2 mM L-glutamine and antibiotics (0.1 mg/mL streptomycin and 100 U/mL penicillin) (Sigma-Aldrich, St Louis, MO, USA). Cell cultures were grown in an incubator at 37 °C with 5% CO2 atmosphere. After reaching approximately 80% of confluence, cells were detached in a solution of 0.1% trypsin and 0.04% EDTA and plated as required for further experiments.
(§4) Cell lines were seeded into 96-well plates at 5 × 10^3 (HepG2) and 3 × 10^3 (Hep3B and HH4) cells/well 24 h before treatment. Increasing concentrations of the monomer trans-resveratrol, the dimers ampelopsin A and trans-ε-viniferin and the tetramers isohopeaphenol, hopeaphenol, R2-viniferin and R-viniferin were then added and cells were incubated for 24, 48, and 72 h. Stilbenes were dissolved in dimethyl sulfoxide (DMSO), Sigma-Aldrich, St Louis, MO, USA) at a final concentration of 0.01%. The same amount of DMSO was added to control cells. After treatment, the cell viability was determined using the crystal violet assay. The absorbance was recorded at 590 nm in a Synergy HT microplate reader (BioTek, Winooski, VT, USA). Cell viability was calculated as the percentage of viable cells treated with stilbene versus untreated control cells using the following equation: Cell viability (%) = [OD (Treatment) − OD (Blank)]/[OD (Control) − OD (Blank)] × 100. The cytotoxic effect of stilbenes was determined by calculating IC50 values using non-linear regression analysis (GraphPad Prism 6, San Diego, CA, USA).
(§5) The statistical package SPSS 19.0 (SPSS Inc. Chicago, IL, USA) was used for data analysis. The results were expressed as mean ± standard error (SE) from at least three experiments. Statistical significance for the differences of the means was estimated by parametric Student’s t-test. Differences between means were considered statistically significant for p < 0.05. IC50 values were derived from fitting the data to a sigmoidal dose-response curve with a three-parameter logistic model using Graph Pad Prism 6.

HepG2 [2] = assay: Cell viability, crystal violet assay, HepG2; conditions: mean ± standard error
From the text: as §2, §3, §4, §5

HH4 = assay: Cell viability, crystal violet assay, HH4 non-transformed hepatocytes; conditions: Homo sapiens, Hepatocyte, mean ± standard error
From the text: as §2, §3, §4, §5

HepG2 [3] = assay: Cell cycle analysis by flow cytometry (propidium iodide), HepG2; conditions: HepG2, 10 µM, mean ± SE
Experimental: Exponentially growing cells were seeded in 6-wells plates (200,000 cells HepG2 and 180,000 cells Hep3B) 24 h before R2-viniferin treatment. On the day of treatment, the culture medium was replaced with culture medium containing R2-viniferin or vehicle solution (control).
After a treatment, cells were detached by trypsinization and fixed overnight at 4 °C in 70% ice-cold ethanol diluted in phosphate buffer saline (PBS). The ethanol was then discarded and the cells were washed with ice-cold PBS and finally stained with 25 μg/mL of propidium iodide (Sigma-Aldrich, St Louis, MO, USA) in the presence of 200 μg/mL ribonuclease A (Roche Biochemicals, Indianapolis, IN, USA) for 30 min at room temperature in the dark. Flow cytometry analysis (Beckman Coulter Gallios) was carried out from a total number of 10,000 events acquired in the General Research Services SGIker of the UPV/EHU. Analysis of the data was performed using Summit 4.3 software (Dako, Glostrup, Hovedstaden, Denmark).

[4] = test system: mitochondrial O2- in HepG2; assay: Mitochondrial O2- levels, MitoSOX probe, flow cytometry; conditions: HepG2, 5 and 10 µM, any of the doses or times assayed
Experimental: The mitochondrial superoxide anion (O2^−) levels were measured using MitoSOX™Red reagent (Molecular Probes, Eugene, OR, USA), which permeates living cells where it selectively targets mitochondria and is oxidized by superoxide.
as §1

Oc1ccc([C@H]2c3c(O)cc(O)cc3[C@H]3c4c(cc(O)cc4[C@@H]2c2cc(/C=C/c4cc(O)cc5c4[C@H](c4cc(O)cc(O)c4)[C@@H](c4ccc(O)cc4)O5)ccc2O)O[C@@H]3c2ccc(O)cc2)cc1 [R2-Viniferin]
Effect on intracellular ROS concentration ([1]; HepG2, 5 and 10 µM, from the first time assayed): increased the intracellular ROS concentration dose-dependently
Effect on intracellular ROS ([1]; HepG2, highest concentration used (10 µM)): ROS remained significantly elevated up to 72 h
IC50 (Hep3B; 72 h): 47.8 ± 2.8 µM
IC50 (Hep3B; Homo sapiens, Hep3B, 24 h): > 200 µM
IC50 (Hep3B; Homo sapiens, Hep3B, 48 h): 43.9 ± 3.6 µM
IC50 (Hep3B; Homo sapiens, Hep3B, 72 h): 48 µM
IC50 (HepG2 [2]; 72 h): 9.7 ± 0.4 µM
IC50 (HepG2 [2]; Homo sapiens, HepG2, 24 h, 24 h): > 200 µM
IC50 (HepG2 [2]; Homo sapiens, HepG2, 48 h, 48 h): 10.2 ± 8.2 µM
IC50 (HepG2 [2]; Homo sapiens, HepG2, 72 h, 72 h): < 10 µM
IC50 (HH4; 24 h): > 200 µM
IC50 (HH4; 48 h): > 200 µM
IC50 (HH4; 72 h): > 200 µM
Cell cycle G0/G1 (percentage of cells) (HepG2 [3]; 24 h): 65.6 ± 11.7%
Cell cycle G2/M (percentage of cells) (HepG2 [3]; 24 h): 22.5 ± 8.5%
Cell cycle S (percentage of cells) (HepG2 [3]; 24 h): 11.9 ± 3.2%
SubG0 (percentage of total cells) (HepG2 [3]; 24 h): 8.5 ± 2.7%
Cell cycle G0/G1 (percentage of cells) (HepG2 [3]; 48 h): 71.7 ± 10.9%
Cell cycle G2/M (percentage of cells) (HepG2 [3]; 48 h): 19.3 ± 6.5%
Cell cycle S (percentage of cells) (HepG2 [3]; 48 h): 9.0 ± 4.5%
SubG0 (percentage of total cells) (HepG2 [3]; 48 h): 22.4 ± 11.0%
Cell cycle G0/G1 (percentage of cells) (HepG2 [3]; 72 h): 75.5 ± 7.8%
Cell cycle G2/M (percentage of cells) (HepG2 [3]; 72 h): 15.0 ± 2.2%
Cell cycle S (percentage of cells) (HepG2 [3]; 72 h): 9.5 ± 5.6%
SubG0 (percentage of total cells) (HepG2 [3]; 72 h): 71.0 ± 2.1%
Effect on mitochondrial O2- [4]: no significant effect
